Assay results from patent publication US6562801B1, “PpGpp and pppGpp as immunomodulatory agents” (Board of Regents, The University of Texas System, priority 1999, dated 2003).
Entries after “also recorded” stand apart in the source; their conditions may differ.

How the values were obtained:
[1] = tested on: humoral response to HBsAg (anti-HBsAg antibodies); test: Humoral response (anti-HBsAg antibody titers by ELISA) in mice immunized i.m. with HBsAg plus adjuvant; format: in vivo, BALB/c mice; conditions: for mean anti-HBsAg titer: 3 weeks post-immunization, approx. 18 nmol compound per mouse with alum and 1 μg HBsAg (FIG. 4); for speed of immune response vs alum control: titers at 2 to 3 weeks, p<0.05, approx. 18 nmol per mouse with alum
Experimental: Immunization with HBsAg was conducted on groups of (n=4 or 5) 6- to 8-week old female BALB/c mice (Harlan) as described in, Davis et al., 1996. Each solution contained 1 μg recombinant HBsAg protein (ayw subtype; Genzyme) in a total volume of 50 μl, and 25 μl of each antigen solution was injected into both the left and right tibialis anterior muscles. […] This is the same ratio as used in the commercial hepatitis B vaccines (Davis et al., 1996). […] (Oligonucleotide 1826, previously described in Davis et al., 1996, contains a nuclease-resistant phosphorothioate modified backbone).
The ELISA method was used to evaluate the immune response to a combination of ppGpp and pppGpp and the immune response to ppGpp alone. Kinetics and magnitude of the immune response generated by the nucleotide ppGpp versus an oligonucleotide containing CpG were also determined from the data generated by ELISA. For the isotyping ELISAs the Immunopure Monoclonal Antibody Isotyping Kit I (HRP/ABTS) from Pierce was modified and used.
For measuring humoral response to HBsAg blood was recovered from mice by tail vein bleeds at various times after immunization. The blood was clotted at room temperature for >2 hours, and centrifuged twice at 13 krpm for 10 minutes to separate the serum. Antibodies specific to HBsAg were detected by ELISA, and were quantified relative to a monoclonal antibody against HBsAg (IgG1, 10^10 affinity constant, ad+ay; Genzyme). A solid phase of recombinant HBsAg protein (100 μl of 1 μg/ml per well, overnight at 4° C.) was used to capture anti-HBsAg in the plasma (overnight at 4° C.), which was then detected with HRP-conjugated rabbit anti-mouse IgG+IgM. (1:10,000 in PBS/0.1% Tween/2% BSA; 100 μl per well; Pierce), followed by the sequential addition of 3 3′,5,5′-tetramethylbenzidine solution (50 μl/well, 10 minutes at room temperature; Calbiochem) and 0.25M HCl (50 μl/well). Absorbance was measured at 450 nm within 10 minutes of adding the final reagent. Anti-HB titers are expressed as group means +/−standard error (SE) of individual animals values, which are in turn averages of triplicate assays.

[2] = Tolerability / signs of toxicity in immunized mice; format: in vivo; conditions: up to 250 μg ppGpp per mouse i.m.

SMILES	adjuvant effect on humoral response ([1]; 10 μg (18 nmol) GTP with alum and HBsAg (FIG. 4E))	effect upon the humoral response ([1]; 2 μg ppGpp plus alum (FIG. 3C))	effect upon the humoral response ([1]; 50 μg ppGpp plus alum (FIG. 3E))	effect upon the humoral response ([1]; 250 μg ppGpp plus alum (FIG. 3F vs 3B))	mean anti-HBsAg titer [1]	anti-HBsAg titer, ppGpp group vs alum group ([1]; 4 weeks post-immunization, ppGpp 10 μg plus alum (FIG. 3B vs 3D))	anti-HBsAg titer, ppGpp group vs alum group ([1]; 6 weeks post-immunization, ppGpp 10 μg plus alum)	maximal anti-HBsAg titer level ([1]; 10 weeks post-immunization, HBsAg plus alum, ppGpp 10 μg)	time course of humoral response, ppGpp vs unmethylated CpG oligonucleotide (oligo 1826) ([1]; ppGpp 10 μg vs oligo 10 μg, with alum (FIG. 5))	effect of natural ppGpp vs predicted response of natural CpG oligonucleotide ([1]; predicted response, dotted line of FIG. 5)	speed of immune response vs alum control [1]	optimal dosage per mouse ([1]; titration 2, 10, 50, 250 μg ppGpp with alum and 1 μg HBsAg (FIGS. 3C-3F))	mean ELISA titer of anti-HBsAg antibodies ([1]; two weeks after injection, HBsAg plus alum, ppGpp 10 μg, p=0.04 (FIG. 3B, 3D))	tolerability / signs of toxicity (ruffling of fur, diarrhea) [2]
Nc1nc2c(ncn2[C@@H]2O[C@H](COP(=O)(O)OP(=O)(O)OP(=O)(O)O)[C@@H](O)[C@H]2O)c(=O)[nH]1 [GTP, reference compound]	modest at best	–	–	–	–	–	–	–	–	–	–	–	–	–
Nc1nc2c(ncn2[C@@H]2O[C@H](COP(=O)(O)OP(=O)(O)O)[C@@H](OP(=O)(O)OP(=O)(O)O)[C@H]2O)c(=O)[nH]1 [ppGpp, Guanosine 5′-diphosphate 2′(3′)-diphosphate]	–	did not have a significant effect	did not have a significant effect	appeared to suppress the alum-induced adjuvant effect	161 ± 42 ng/mL	trend was still present	comparable titer levels	2316 ± 1764 ng/mL	did not appear to differ	much greater effect	more rapid immune response	10 µg	83 ± 37 ng/mL	well tolerated; also recorded: no signs of toxicity were observed
Nc1nc2c(ncn2[C@@H]2O[C@H](COP(=O)(O)OP(=O)(O)OP(=O)(O)O)[C@@H](OP(=O)(O)OP(=O)(O)O)[C@H]2O)c(=O)[nH]1 [pppGpp, Guanosine 5′-triphosphate 2′(3′)-diphosphate]	–	–	–	–	136 ± 33 ng/mL	–	–	–	–	–	more rapid immune response	–	–	–
